Data published in patent publication US11912723B2, “KRAS modulators and uses thereof” (Quanta Therapeutics, Inc., priority 2022, dated 2024).

Columns and labels:
KRAS G12D/RAF1 = molecular target: T1, KRAS G12D/RAF1 (Homo sapiens, UniProt P01116, G12D); assay: Protein-protein interaction (PPI) HTRF assay KRAS G12D/RAF1; format: binding; settings: KRAS G12D/RAF1, GppNHp-loaded KRAS; 30 minutes pre-incubation
T1 construct: KRAS (1-169) proteins were expressed in E. coli at 18° C; His6-MBP (N, cleaved yes); made in house; host or cells: E. coli
Method in brief: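 IC50 values come from the 665/615 HTRF ratio, scaled between no-compound (0% inhibition) and untagged RAF1 (100%). GppNHp-exchanged, biotinylated RAS (1-169) solution at 16 nM met compound for 30 min at room temperature. Then 16 nM His-tagged RAF1 (52-131) donor solution was added and incubated 1 h.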

[1] = molecular target: T2, GST-tagged KRAS G12D (2-169) (Homo sapiens, UniProt P01116, G12D); assay: Nucleotide exchange assay (NEA), HTRF of SOS-mediated GTP-DY-647P1 binding; format: biochemical; settings: 5 nM GST-KRAS G12D, 20 nM SOScat, 150 nM GTP; compound 1 h at RT
T2 construct: GST-tagged KRAS^G12D (2-169, Reaction Biology, MSC-11-539); purchased Reaction Biology MSC-11-539 (KRAS G12D); MSC-11-502 (SOS1cat)
Method in brief: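 After 1 h RT preincubation of compound with KRAS, SOS1cat (20 nM final) and fluorescent GTP analog (150 nM) were added to 5 nM KRAS; HTRF (anti-GST Tb donor) followed at RT for up to 90 min. % inhibition relative to DMSO and no-SOS1 blank, 4-parameter curve fit.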

T2 sequence (P01116 2-169 isoform P01116-2 G12D): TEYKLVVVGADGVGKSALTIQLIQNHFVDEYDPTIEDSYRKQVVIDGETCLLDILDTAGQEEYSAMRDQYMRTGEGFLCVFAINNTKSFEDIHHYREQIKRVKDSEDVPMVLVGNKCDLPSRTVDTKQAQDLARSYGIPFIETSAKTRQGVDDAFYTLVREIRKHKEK
T1 sequence (P01116 1-169 isoform P01116-2 G12D): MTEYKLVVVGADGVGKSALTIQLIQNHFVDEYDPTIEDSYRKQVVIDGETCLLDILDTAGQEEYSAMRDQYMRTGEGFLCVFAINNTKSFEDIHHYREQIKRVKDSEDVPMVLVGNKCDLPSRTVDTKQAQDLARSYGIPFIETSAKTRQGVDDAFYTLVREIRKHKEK

Row | SMILES | IC50 (KRAS G12D/RAF1) | IC50 [1]
1 | CN(C)C(=O)c1nn2c(c1Cl)CN(c1nc(OC[C@@]34CCCN3C[C@H](F)C4)nc3c1CN(C)[C@@]1(CCc4cccc(Cl)c41)C3)CCC2 [Compound 69, 3-chloro-5-[(7S)-7′-chloro-2-[[(2R,8S)-2-fluoro-1,2,3,5,6,7-hexahydropyrrolizin-8-yl]methoxy]-6-methyl-spiro[5,8-dihydropyrido[4,3-d]pyrimidine-7,1′-indane]-4-yl]-N,N-dimethyl-4,6,7,8-tetrahydropyrazolo[1,5-a][1,4]diazepine-2-carboxamide] | 10 to 100 µM | < 0.01 µM
2 | CN(C)C(=O)c1cc2n(n1)CCCN(c1nc(OC[C@@]34CCCN3C[C@H](F)C4)nc3c1CN(C)[C@@]1(CCCc4ccccc41)C3)C2 [Compound 72, 5-[(7S)-2-[[(2R,8S)-2-fluoro-1,2,3,5,6,7-hexahydropyrrolizin-8-yl]methoxy]-6-methyl-spiro[5,8-dihydropyrido[4,3-d]pyrimidine-7,1′-tetralin]-4-yl]-N,N-dimethyl-4,6,7,8-tetrahydropyrazolo[1,5-a][1,4]diazepine-2-carboxamide] | 10 to 100 µM | < 0.01 µM
3 | CN1Cc2c(nc(OC[C@@]34CCCN3C[C@H](F)C4)nc2N2CCCn3nc(N)c(Cl)c3C2)C[C@]12CCCc1ccccc12 [Compound 79, 3-chloro-5-[(7S)-2-[[(2R,8S)-2-fluoro-1,2,3,5,6,7-hexahydropyrrolizin-8-yl]methoxy]-6-methyl-spiro[5,8-dihydropyrido[4,3-d]pyrimidine-7,1′-tetralin]-4-yl]-4,6,7,8-tetrahydropyrazolo[1,5-a][1,4]diazepin-2-amine] | > 100 µM | < 0.01 µM
4 | C#Cc1c(C(=O)N(C)C)nn2c1CN(c1nc(OC[C@@]34CCCN3C[C@H](F)C4)nc3c1CN(C)[C@@]1(CCCc4ccccc41)C3)CCC2 [Compound 81, 3-ethynyl-5-[(7S)-2-[[(2R,8S)-2-fluoro-1,2,3,5,6,7-hexahydropyrrolizin-8-yl]methoxy]-6-methyl-spiro[5,8-dihydropyrido[4,3-d]pyrimidine-7,1′-tetralin]-4-yl]-N,N-dimethyl-4,6,7,8-tetrahydropyrazolo[1,5-a][1,4]diazepine-2-carboxamide] | 10 to 100 µM | < 0.01 µM
5 | CN1Cc2c(nc(OC[C@@]34CCCN3C[C@H](F)C4)nc2N2C[C@H]3CC[C@@H](C2)N3)C[C@]12CCCc1ccccc12 [Compound 84, (7S)-4-[(1R,5S)-3,8-diazabicyclo[3.2.1]octan-3-yl]-2-[[(2R,8S)-2-fluoro-1,2,3,5,6,7-hexahydropyrrolizin-8-yl]methoxy]-6-methyl-spiro[5,8-dihydropyrido[4,3-d]pyrimidine-7,1′-tetralin]] | > 100 µM | < 0.01 µM
6 | Cc1nc(-c2nn3c(c2Cl)CN(c2nc(OC[C@@]45CCCN4C[C@H](F)C5)nc4c2CN(C)[C@@]2(CCCc5ccccc52)C4)CCC3)no1 [Compound 87, 3-[3-chloro-5-[(7S)-2-[[(2R,8S)-2-fluoro-1,2,3,5,6,7-hexahydropyrrolizin-8-yl]methoxy]-6-methyl-spiro[5,8-dihydropyrido[4,3-d]pyrimidine-7,1′-tetralin]-4-yl]-4,6,7,8-tetrahydropyrazolo[1,5-a][1,4]diazepin-2-yl]-5-methyl-1,2,4-oxadiazole] | 10 to 100 µM | < 0.01 µM
7 | Cc1nnc(-c2nn3c(c2Cl)CN(c2nc(OC[C@@]45CCCN4C[C@H](F)C5)nc4c2CN(C)[C@@]2(CCCc5ccccc52)C4)CCC3)n1C [Compound 90, (7S)-4-[3-chloro-2-(4,5-dimethyl-1,2,4-triazol-3-yl)-4,6,7,8-tetrahydropyrazolo[1,5-a][1,4]diazepin-5-yl]-2-[[(2R,8S)-2-fluoro-1,2,3,5,6,7-hexahydropyrrolizin-8-yl]methoxy]-6-methyl-spiro[5,8-dihydropyrido[4,3-d]pyrimidine-7,1′-tetralin]] | 10 to 100 µM | < 0.01 µM
8 | CN(C)C(=O)c1nn2c(c1Cl)CN(c1nc(OC[C@@]34CCCN3C[C@H](F)C4)nc3c1CN(C)[C@@]1(CCc4cccc(O)c41)C3)CCC2 [Compound 96, 3-chloro-5-[(7S)-2-[[(2R,8S)-2-fluoro-1,2,3,5,6,7-hexahydropyrrolizin-8-yl]methoxy]-7′-hydroxy-6-methyl-spiro[5,8-dihydropyrido[4,3-d]pyrimidine-7,1′-indane]-4-yl]-N,N-dimethyl-4,6,7,8-tetrahydropyrazolo[1,5-a][1,4]diazepine-2-carboxamide] | 10 to 100 µM | < 0.01 µM
9 | CN(C)CC1(COc2nc3c(c(N4CCCn5nc(C(=O)N(C)C)c(Cl)c5C4)n2)CN(C)[C@@]2(CCCc4ccccc42)C3)CC1(F)F (stereo partly drawn) [Compound 97, 3-chloro-5-[(7S)-2-[[1-[(dimethylamino)methyl]-2,2-difluoro-cyclopropyl]methoxy]-6-methyl-spiro[5,8-dihydropyrido[4,3-d]pyrimidine-7,1′-tetralin]-4-yl]-N,N-dimethyl-4,6,7,8-tetrahydropyrazolo[1,5-a][1,4]diazepine-2-carboxamide] | > 100 µM | < 0.01 µM
10 | CN1Cc2c(nc(OC[C@@]34CCCN3C[C@H](F)C4)nc2N2CCCn3nc(-c4nnnn4C)c(Cl)c3C2)C[C@]12CCCc1ccccc12 [Compound 99, (7S)-4-[3-chloro-2-(1-methyltetrazol-5-yl)-4,6,7,8-tetrahydropyrazolo[1,5-a][1,4]diazepin-5-yl]-2-[[(2R,8S)-2-fluoro-1,2,3,5,6,7-hexahydropyrrolizin-8-yl]methoxy]-6-methyl-spiro[5,8-dihydropyrido[4,3-d]pyrimidine-7,1′-tetralin]] | > 100 µM | < 0.01 µM
